Assay results: US5387602A, “1.5-diphenyl-3-(N-hydroxycarbamoyloxyalkyl)pyrazoles” (Ortho Pharmaceutical Corporation, priority 1993, dated 1995)

Assays:
[1] = target: T1, Sheep Seminal Vesicle Cyclooxygenase (Ovis aries, UniProt P05979); assay: Procedure I: sheep seminal vesicle (SSV) cyclooxygenase inhibition; type: biochemical; conditions: for IC50: SSV CO; for % INHIB. CO (Procedure I): dose 3 MPK unless otherwise stated (so in the source)
T1 construct: purchased Biomol (Plymouth Meeting, Pa.); host or cells: sheep seminal vesicle
T1 sequence (P05979 25-600): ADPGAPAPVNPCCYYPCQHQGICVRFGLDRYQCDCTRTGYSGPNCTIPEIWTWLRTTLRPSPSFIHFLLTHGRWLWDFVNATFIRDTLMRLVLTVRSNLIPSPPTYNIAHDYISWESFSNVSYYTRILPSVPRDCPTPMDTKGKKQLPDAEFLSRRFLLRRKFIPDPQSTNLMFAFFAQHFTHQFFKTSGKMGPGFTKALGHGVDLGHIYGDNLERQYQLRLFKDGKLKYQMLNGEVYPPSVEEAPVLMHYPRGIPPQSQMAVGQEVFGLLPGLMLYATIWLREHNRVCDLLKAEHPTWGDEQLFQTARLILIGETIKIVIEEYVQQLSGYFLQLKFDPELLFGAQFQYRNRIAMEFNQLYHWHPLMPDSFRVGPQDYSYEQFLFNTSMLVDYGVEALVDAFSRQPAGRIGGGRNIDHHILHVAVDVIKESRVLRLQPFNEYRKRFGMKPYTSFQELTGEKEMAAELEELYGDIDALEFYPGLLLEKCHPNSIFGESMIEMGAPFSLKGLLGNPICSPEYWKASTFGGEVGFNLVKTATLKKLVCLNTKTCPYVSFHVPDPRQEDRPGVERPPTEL
Experimental: Sheep Seminal Vesicle Cyclooxygenase Sheep seminal vesicle (SSV) cyclooxygenase (95% pure, prostaglandin endoperoxide synthase, EC 1.14.99.1 specific activity 24 units/mg protein) obtained as a lyophilized powder from Biomol (Plymouth Meeting, Pa.) was reconstituted at a concentration of 59 mg/mL in Hanks' Balanced Salt Solution (HBSS). The enzyme was divided into 200 μL aliquots, snap frozen with liquid N2, and stored at -70° C. until immediately prior to use. Measurements of CO activity were carried out in polypropylene tubes containing 495 μL of HBSS to which was added 5 μL Of inhibitor or dimethylsulfoxide (DMSO; vehicle control) and 6 μL of SSV CO solution. The tubes were mixed on a vortex shaker, preincubated for 5 min at 37° C. prior to the initiation of the reaction. The reaction was started by the addition of [^14 C]-arachidonic acid (1-^14 C-AA, Amersham, Arlington Heights, Ill.) in 10 μL of methanol. Tubes were again vortexed and incubated in a water bath for 20 minutes after which the tubes were removed and the reaction stopped by acidification with the addition of 1 mL 2M formic acid. Lipophilic products were extracted with 3 mL chloroform and concentrated to dryness under N2. Each pellet was reconstituted with 40 μL of chloroform and spotted on a Whatman Silicon thin-layer chromatography plate and developed in a chromatography tank containing A-9 solvent (11:5:2:1 V:V:V:V, ethyl acetate:trimethyl-pentane:acetic acid:double distilled-H2 O). Radioactive cyclooxygenase products (prostaglandin D2, prostaglandin E2, etc.) were measured using a Bioscan System 200 Imaging Scanner. Inhibition of enzyme activity was calculated by comparing the areas under the curve produced in the presence or absence of test compound. In the following tables, the superscripts indicate the number of experiments and, unless otherwise stated, the dose at which % inhibition is reported is 3 MPK.

[2] = target: T2, CO in intact RBL-1 cells (Rattus norvegicus, UniProt Q63921); assay: Procedure III: inhibition of CO in intact RBL-1 cells; type: cell-based
T2 construct: 5-LO and CO in intact RBL-1 cells; endogenous in cells; host or cells: RBL-1 (rat basophilic leukemia cells), intact
T2 sequence (Q63921 27-602): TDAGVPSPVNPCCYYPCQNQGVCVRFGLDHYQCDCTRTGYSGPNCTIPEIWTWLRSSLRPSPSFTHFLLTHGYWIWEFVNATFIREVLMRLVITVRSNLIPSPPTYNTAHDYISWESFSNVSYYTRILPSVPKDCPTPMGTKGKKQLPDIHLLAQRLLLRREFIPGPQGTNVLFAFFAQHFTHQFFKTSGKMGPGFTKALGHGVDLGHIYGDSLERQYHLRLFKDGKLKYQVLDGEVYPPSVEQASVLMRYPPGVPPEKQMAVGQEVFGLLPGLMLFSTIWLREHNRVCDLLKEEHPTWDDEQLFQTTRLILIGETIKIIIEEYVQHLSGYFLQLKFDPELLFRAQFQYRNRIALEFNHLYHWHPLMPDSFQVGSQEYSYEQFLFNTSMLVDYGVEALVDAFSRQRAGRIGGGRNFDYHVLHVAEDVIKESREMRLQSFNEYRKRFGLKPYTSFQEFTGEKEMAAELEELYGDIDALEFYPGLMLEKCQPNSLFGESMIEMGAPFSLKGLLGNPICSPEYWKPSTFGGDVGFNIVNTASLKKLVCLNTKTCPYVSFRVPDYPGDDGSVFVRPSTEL
Experimental: The ability to inhibit 5-LO and CO in intact RBL-1 cells was also evaluated. RBL-1 cells were maintained in culture in minimal essential medium (Bio*Whittaker, Walkersville, Md.), containing 12.5% fetal calf serum, 10 mg/mL streptomycin, 10 I.U./mL penicillin G, […] gentamycin and 2 mM L-glutamine (Bio*Whittaker, Walkersville, Md.). Cells were collected by centrifugation, washed once in HBSS, and resuspended at a concentration of 1×10^5 cells/mL. Cells were incubated in the presence of vehicle or drug then centrifuged at 800×g for 10 minutes at 4° C. The supernatant was removed by aspiration and the cells were resuspended in 0.5 mL of HBSS. The reaction was started by the addition of 20 μg/mL of calcium ionophore A-23187 (mixed calcium and magnesium salts, Calbiochem, La Jolla, Calif.) and allowed to proceed for 15 minutes, then stopped by plunging the tubes into a slush ice bath. The conversion of AA to 5-LO products was initiated by the addition of 10 μL (50 uCi) of 1-^14 C-AA. Products were isolated by acidification and extraction, followed by thin layer chromatography analysis as described above. Radioactive areas corresponding to authentic 5-LO and CO products were quantitated by the Bioscan 2000 Imaging System.
In the following tables, the superscripts indicate the number of experiments and, unless otherwise stated, the dose at which % inhibition is reported is 3 MPK.

SMILES | IC50 [1] [nM] | % INHIB. CO (Procedure I) [1] [%] | IC50 [2] [nM]
COc1ccc(-n2nc(COC(=O)NO)cc2-c2ccc(Cl)cc2)cc1 [1-A] | 2250 | 43 | 1400
COc1ccc(-n2nc(COC(=O)N(C)O)cc2-c2ccc(Cl)cc2)cc1 [1-B] | 730 | 100 | 380
COc1ccc(-n2nc(COC(=O)N(O)C(C)C)cc2-c2ccc(Cl)cc2)cc1 [1-C] | 520 | 92 | 540
COc1ccc(-n2nc(COC(=O)NO)c(Br)c2-c2ccc(Cl)cc2)cc1 [1-D] | 3100 | 43 | 2400
COc1ccc(-n2nc(COC(=O)N(C)O)c(Br)c2-c2ccc(Cl)cc2)cc1 [1-E] | 740 | 100 | 220
COc1ccc(-n2nc(COC(=O)N(O)C(C)C)c(Br)c2-c2ccc(Cl)cc2)cc1 [1-F] | – | 44 | 1900
COc1ccc(-n2nc(COC(=O)NO)c(Cl)c2-c2ccc(Cl)cc2)cc1 [1-G] | – | 28 | 2200
COc1ccc(-n2nc(COC(=O)N(C)O)c(Cl)c2-c2ccc(Cl)cc2)cc1 [1-H] | 1150 | 100 | 390
COc1ccc(-n2nc(COC(=O)N(O)C(C)C)c(Cl)c2-c2ccc(Cl)cc2)cc1 [1-I] | 5300 | 18 | 1970
COc1ccc(-n2nc(COC(=O)NO)cc2-c2ccc(C)cc2)cc1 [1-J] | 730 | 73 | 170
COc1ccc(-n2nc(COC(=O)N(C)O)cc2-c2ccc(C)cc2)cc1 [1-K] | 510 | 100 | 30
COc1ccc(-n2nc(COC(=O)N(O)C(C)C)cc2-c2ccc(C)cc2)cc1 [1-L] | 420 | 100 | 20
COc1ccc(-n2nc(COC(=O)NO)c(Br)c2-c2ccc(C)cc2)cc1 [1-M] | 2310 | 75 | 860
COc1ccc(-n2nc(COC(=O)N(C)O)c(Br)c2-c2ccc(C)cc2)cc1 [1-N] | 890 | 100 | 80
COc1ccc(-n2nc(COC(=O)N(O)C(C)C)c(Br)c2-c2ccc(C)cc2)cc1 [1-O] | 2660 | 59 | 860
COc1ccc(-n2nc(COC(=O)NO)c(Cl)c2-c2ccc(C)cc2)cc1 [1-P] | 5000 | 52 | 2500
COc1ccc(-n2nc(COC(=O)N(C)O)c(Cl)c2-c2ccc(C)cc2)cc1 [1-Q] | 2160 | 93 | 150
COc1ccc(-n2nc(COC(=O)N(O)C(C)C)c(Cl)c2-c2ccc(C)cc2)cc1 [1-R] | – | 11 | 4100

SMILES | IC50 [1] [nM] | % INHIB. CO (Procedure I) [1] [%] | IC50 [2] [nM]
COc1ccc(-n2nc(CCOC(=O)N(C)O)cc2-c2ccc(Cl)cc2)cc1 [2-A] | 2010 | 100 | 800
COc1ccc(-n2nc(CCOC(=O)N(O)C(C)C)cc2-c2ccc(Cl)cc2)cc1 [2-B] | 960 | 100 | 180
COc1ccc(-n2nc(CCOC(=O)N(C)O)c(Cl)c2-c2ccc(Cl)cc2)cc1 [2-C] | 1850 | 100 | 2700
COc1ccc(-n2nc(CCOC(=O)N(O)C(C)C)c(Cl)c2-c2ccc(Cl)cc2)cc1 [2-D] | 290 | 63 | 1500
COc1ccc(-n2nc(CCOC(=O)N(C)O)c(Br)c2-c2ccc(Cl)cc2)cc1 [2-E] | 1970 | 37 | 2200
COc1ccc(-n2nc(CCOC(=O)N(O)C(C)C)c(Br)c2-c2ccc(Cl)cc2)cc1 [2-F] | 480 | 58 | 2400
COc1ccc(-n2nc(CCOC(=O)N(C)O)cc2-c2ccc(C)cc2)cc1 [2-G] | 410 | 100 | 80
COc1ccc(-n2nc(CCOC(=O)N(O)C(C)C)cc2-c2ccc(C)cc2)cc1 [2-H] | 220 | 94 | 40
COc1ccc(-n2nc(CCOC(=O)N(C)O)c(Cl)c2-c2ccc(C)cc2)cc1 [2-I] | 3500 | 80 | 630
COc1ccc(-n2nc(CCOC(=O)N(O)C(C)C)c(Cl)c2-c2ccc(C)cc2)cc1 [2-J] | 4500 | 88 | 1100
COc1ccc(-n2nc(CCOC(=O)NO)c(Br)c2-c2ccc(C)cc2)cc1 [2-K] | – | 21 | 3200
COc1ccc(-n2nc(CCOC(=O)N(C)O)c(Br)c2-c2ccc(C)cc2)cc1 [2-L] | – | 22 | 1800
COc1ccc(-n2nc(CCCOC(=O)NO)cc2-c2ccc(Cl)cc2)cc1 [3-A] | 4000 | 40 | 4600
COc1ccc(-n2nc(CCCOC(=O)N(C)O)cc2-c2ccc(Cl)cc2)cc1 [3-B] | – | 74 | 420
COc1ccc(-n2nc(CCCOC(=O)N(O)C(C)C)cc2-c2ccc(Cl)cc2)cc1 [3-C] | 1400 | 53 | 1230
COc1ccc(-n2nc(CCCOC(=O)N(C)O)c(Cl)c2-c2ccc(Cl)cc2)cc1 [3-D] | 2550 | 68 | 2270
COc1ccc(-n2nc(CCCOC(=O)N(O)C(C)C)c(Cl)c2-c2ccc(Cl)cc2)cc1 [3-E] | 5800 | 26 | 12200
COc1ccc(-n2nc(CCCOC(=O)N(C)O)c(Br)c2-c2ccc(Cl)cc2)cc1 [3-F] | 2290 | 78 | 4920
